The target of assay [1] is T1, PLK1 (Homo sapiens, UniProt P53350).
T1 construct: The PLK1 ORF was cloned into pSSP1 such that the resulting PLK1 translation product would have a 19 amino acid N-terminal tag; made in house; host or cells: Sf9 insect cells (baculovirus)
Description: PLK1 kinase assay (CDC25C phosphorylation, [γ-32P]-ATP). It is filed as biochemical. The note with it: for inhibition of PLK1 function: at concentrations up to 0.2 mM; for inhibition of PLK1: even at concentrations as high as 1 mM. The procedure:
PLK1 kinase activity was assayed using human CDC25C phosphatase as a substrate. The assays were carried out using 96-well microtitre plates by incubating CDC25C (2 μg/well) with 1 μg/well of purified human recombinant PLK1 and varying concentrations of the candidate compound in a total volume of […] of 20 mM Tris/HCl buffer pH 7.5, supplemented with 25 mM β-glycerophosphate, 5 mM EGTA, 1 mM DTT, and 1 mM NaVO3. Reaction was initiated by the addition of 100 μM ATP and 0.5 μCi of [γ-^32P]-ATP. The reaction mixture was incubated at 30° C. for 1 h, then stopped with 75 mM aq orthophosphoric acid, transferred onto a 96-well P81 filter plate (Whatman), dried, and the extent of CDC25C phosphorylation was assessed by scintillation counting using a Packard TopCount plate reader.
Adenosine, N-ethyhnaleimide, iodoacetamide, and thimerosal were obtained from Sigma Chemical Co. 2′-Thioadenosine was obtained from Calbiochem. […] All compounds were made up as 10 mM stocks in neat dimethylsulfoxide and fresh dilutions to the desired concentrations were made in assay buffer prior to the assay. The candidate compounds were incubated with the enzyme in the kinase assay buffer for the duration of the assay, usually 1 hour at 30° C. […] For each compound duplicate samples, one of which contained dithiothreitol (DTT) at 1 mM final concentration, were assayed.

The target of assay [2] is T1, PLK1. The assay can be described thus: Kinetic analysis of PLK1 inhibition (ATP dependence). Type of assay: biochemical.
The next assay deals with T2, Human recombinant CKII (Homo sapiens, UniProt P68400).
T2 construct: purchased New England Biolabs
The assay can be described thus: Casein Kinase II (CKII) assay. It is filed as biochemical. Conditions: at concentrations up to 0.2 mM. The procedure:
Reaction was initiated by the addition of 100 μM ATP and 0.25 μCi of [γ-^32P]-ATP. The reaction mixture was incubated at 30° C. for 15 minutes, then stopped with 75 mM aq orthophosphoric acid, transferred onto a 96-well P81 filter plate (Whatman), dried, and the extent of peptide phosphorylation was assessed by scintillation counting using a Packard TopCount plate reader.

The target in a further assay is PKA (Homo sapiens, UniProt P17612). The note with it: Table 14, published values; cited from earlier work.
A further assay concerns the target CDK2 (Homo sapiens, UniProt P24941). Description: CDK2 inhibition. Type of assay: biochemical. Conditions: Table 12.
Setting [3] is: in the absence of dithiothreitol, read-out: IC50 (μM) − DTT.
[4] abbreviates: in the presence of dithiothreitol (1 mM), read-out: IC50 (μM) + DTT.
Where [5] appears, read: Kinase inhibition, flavonoid compounds, read-out: Plk1 IC50.
[6] abbreviates: Table 14, read-out: Plk1 (IC50).
The mark [7] stands for this setting: read-out: IC50 with respect to PLK1.

These results are taken from US20080132484A1, “Method for Identifying Inhibitors Using a Homology Model of Polo-Like Kinase 1” (CYCLACEL LIMITED, priority 2003, published 2008).

Entries after “also recorded” stand apart in the source; their conditions may differ. Like-named read-outs stand apart in the source and are kept apart here.

T1 sequence (P53350 whole entry): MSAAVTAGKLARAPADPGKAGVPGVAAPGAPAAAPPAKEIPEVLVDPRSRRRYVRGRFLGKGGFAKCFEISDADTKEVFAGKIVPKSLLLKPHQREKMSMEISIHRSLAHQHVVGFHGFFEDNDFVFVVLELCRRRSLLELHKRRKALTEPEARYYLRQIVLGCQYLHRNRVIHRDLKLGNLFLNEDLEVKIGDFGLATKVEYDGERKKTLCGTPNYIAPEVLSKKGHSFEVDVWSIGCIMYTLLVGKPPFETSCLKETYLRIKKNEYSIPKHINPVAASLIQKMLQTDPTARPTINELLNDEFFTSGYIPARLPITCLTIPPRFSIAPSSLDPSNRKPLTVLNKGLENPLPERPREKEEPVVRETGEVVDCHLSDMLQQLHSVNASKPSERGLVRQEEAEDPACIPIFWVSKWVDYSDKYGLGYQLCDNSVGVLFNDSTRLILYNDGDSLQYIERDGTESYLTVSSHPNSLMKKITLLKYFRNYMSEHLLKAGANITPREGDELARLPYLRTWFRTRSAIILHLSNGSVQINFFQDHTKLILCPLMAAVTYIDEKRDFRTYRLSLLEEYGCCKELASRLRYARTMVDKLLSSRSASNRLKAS
T2 sequence (P68400 whole entry): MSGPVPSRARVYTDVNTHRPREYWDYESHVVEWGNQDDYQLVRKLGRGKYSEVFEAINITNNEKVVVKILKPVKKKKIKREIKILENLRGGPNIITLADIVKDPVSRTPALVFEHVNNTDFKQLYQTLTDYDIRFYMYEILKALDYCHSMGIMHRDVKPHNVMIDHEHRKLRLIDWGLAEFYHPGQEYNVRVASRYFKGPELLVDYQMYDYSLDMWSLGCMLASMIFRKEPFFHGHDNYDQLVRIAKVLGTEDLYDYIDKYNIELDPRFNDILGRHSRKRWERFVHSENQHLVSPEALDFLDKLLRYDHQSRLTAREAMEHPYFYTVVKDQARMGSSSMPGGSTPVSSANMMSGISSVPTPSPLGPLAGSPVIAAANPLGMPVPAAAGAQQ
T2 sequence (P67870 whole entry partner): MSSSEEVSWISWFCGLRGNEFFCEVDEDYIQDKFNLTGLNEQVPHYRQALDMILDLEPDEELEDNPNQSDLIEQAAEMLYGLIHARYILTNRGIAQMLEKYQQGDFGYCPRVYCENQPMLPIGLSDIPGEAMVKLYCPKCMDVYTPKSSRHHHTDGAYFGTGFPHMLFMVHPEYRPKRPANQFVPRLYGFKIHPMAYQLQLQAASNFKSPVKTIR

Usually IC50 stands for the concentration needed to halve the response being measured. Regarding `Nc1ncnc2c1ncn2[C@@H]1O[C@H](CO)[C@@H](O)[C@H]1O` [Adenosine], the “inhibition of PLK1 function” value at PLK1 [1] was “did not inhibit”. Moreover, the IC50 on PLK1 [1] (setting [3]) and on PLK1 [1] (setting [4]) was over 200 µM each time. Moreover, the “mode of PLK1 inhibition with respect to ATP” value (shortened to “mode of PLK1 inhibition”) on PLK1 [2] is listed as “none of these compounds were classical competitive inhibitors”. The “inhibition of CKII enzymatic activity” value on Human recombinant CKII was “No significant inhibition”.
For `O=c1cc(-c2ccc(O)c(O)c2)oc2cc(O)cc(O)c12` [Luteolin], on PLK1 [1] (setting [5]), the IC50 was over 100 µM.
Regarding `Cc1ncc2ccccc2c1C#N` [4-Cyano-3-methylisoquinoline], the IC50 at PLK1 [1] (setting [6]) is over 500 µM; at PKA, 0.03 µM. Also, the “inhibition of PLK1” value at PLK1 [1] is “none of these compounds caused any inhibition”.
In the case of `COc1ccc(-c2oc3cc(O)cc(O)c3c(=O)c2O)cc1` [kaempferide], the “PLK1 inhibition, result in words” value on PLK1 [1] was “inactivity”. Besides, on PLK1 [1] (setting [5]), the IC50 was over 100 µM.
Consider `O=c1c(O)c(-c2ccccc2)oc2cc(O)cc(O)c12` [gangolin], for which the “PLK1 inhibition, result in words” value on PLK1 [1] is on record as “inactivity”.
`O=c1c(O)c(-c2ccccc2)oc2cc(O)cc(O)c12` [Galangin]: the IC50 at PLK1 [1] (setting [5]) is over 100 µM.
For the molecule `COC[C@H]1OC(=O)c2coc3c2[C@@]1(C)C1=C(C3=O)[C@@H]2CCC(=O)[C@@]2(C)C[C@H]1OC(C)=O` [Wortmannin], at CDK2, the IC50 is over 10 µM. In addition, the “PLK1 inhibition, result in words” value on PLK1 [1] is listed as “very potent inhibitor”. The “mode of PLK1 inhibition” value on PLK1 [2] is recorded as “totally independent of ATP; also recorded: completely ATP-independent”.
On to Purvalanol A, for which the “PLK1 inhibition, result in words” value on PLK1 [1] is “moderate inhibition”. For the same molecule, the IC50 at PLK1 [1] (Table 12, read-out: Plk1 IC50) is 5 µM; at PLK1 [1] (setting [6]), 10 µM; at PKA it was over 100 µM.
Turning to `O=S(=O)(NCCNC/C=C/c1ccc(Br)cc1)c1cccc2cnccc12` [Inhibitor H89], at PLK1 [1], the “inhibition of PLK1” value is reported as “none of these compounds caused any inhibition”.
Turning to `O=c1c(O)c(-c2cc(O)c(O)c(O)c2)oc2cc(O)cc(O)c12` [Myricetin], the “PLK1 inhibition, result in words” value at PLK1 [1] is given as “lack of inhibition”. Besides, the IC50 on PLK1 [1] (setting [5]) and at PLK1 [1] (setting [7]) was over 100 µM each time.
Consider `O=c1c(O)c(-c2cc(O)c(O)c(O)c2)oc2cc(O)ccc12` [robinetin], for which the “PLK1 inhibition, result in words” value on PLK1 [1] is listed as “weak inhibition”. Also, the IC50 on PLK1 [1] (setting [5]) stood at 60 µM.
Turning to `O=c1c(-c2ccc(O)cc2)coc2cc(O)ccc12` [daidzein], the “PLK1 inhibition, result in words” value on PLK1 [1] is “inactivity”. Further, on PLK1 [1] (setting [5]), the IC50 is over 100 µM.
In the case of `C[CH2][Hg][S]c1ccccc1C(=O)[O-].[Na+]` [Thimerosal], the “PLK1 inhibition, result in words” value at PLK1 [1] was “to some extent”. For the same molecule, the IC50 is 22 µM at PLK1 [1] (setting [3]) and over 200 µM at PLK1 [1] (setting [4]). For the same molecule, the “mode of PLK1 inhibition” value at PLK1 [2] was “none of these compounds were classical competitive inhibitors”. The “inhibition of CKII enzymatic activity” value at Human recombinant CKII is on record as “No significant inhibition”.
`Cl.NCCNS(=O)(=O)c1cccc2c(Cl)cccc12` [Inhibitor A3]: the IC50 at PLK1 [1] (setting [6]) is over 500 µM; on PKA it was 11 µM. Besides, the “inhibition of PLK1” value against PLK1 [1] was “none of these compounds caused any inhibition”.
For the molecule `CCN1C(=O)C=CC1=O` [N-ethylmaleimide], on PLK1 [1], the “PLK1 inhibition, result in words” value is “to some extent”. The IC50 was 55 µM on PLK1 [1] (setting [3]) and over 200 µM at PLK1 [1] (setting [4]). Further, the “inhibition of CKII enzymatic activity” value at Human recombinant CKII is “No significant inhibition”.
Take `O=c1c(O)c(-c2ccc(O)cc2)oc2cc(O)cc(O)c12` [Kaempferol]: the IC50 on PLK1 [1] (setting [5]) is over 100 µM.
Turning to `O=c1c(O)c(-c2ccc(O)c(O)c2)oc2cc(O)ccc12` [fisetin], on PLK1 [1], the “PLK1 inhibition, result in words” value is listed as “inactivity”. On PLK1 [1] (setting [5]), the half-inhibitory concentration (IC50) was over 100 µM.
For `O=c1c(O)c(-c2ccccc2O)oc2cc(O)cc(O)c12` [Datescefin], the IC50 at PLK1 [1] (setting [5]) was over 100 µM.
Regarding `CCCCCCOC(=O)[C@]1(O)C[C@@H]2O[C@@]1(C)n1c3ccccc3c3c4c(c5c6ccccc6n2c5c31)C(=O)NC4` [KT5720], the IC50 on PLK1 [1] (setting [6]) was over 500 µM; at PKA it was 0.056 µM. Also, the “inhibition of PLK1” value against PLK1 [1] is recorded as “none of these compounds caused any inhibition”.
As to `O=c1c(O)c(-c2ccc(O)cc2)oc2cc(O)cc(O)c12` [kaepmpferol], at PLK1 [1], the “PLK1 inhibition, result in words” value is recorded as “lack of inhibition”.
On to `NC(=O)CI` [Iodoacetamide], for which the “PLK1 inhibition, result in words” value on PLK1 [1] is listed as “to some extent”. In addition, the IC50 on PLK1 [1] (IC50 (μM) + DTT, in the presence of dithiothreitol (1 mM)) is over 200 µM; against PLK1 [1] (IC50 (μM) − DTT, in the absence of dithiothreitol), 83 µM. Also, the “inhibition of CKII enzymatic activity” value on Human recombinant CKII is listed as “No significant inhibition”.
As for `CNc1nc(C)c(-c2ccnc(Nc3ccc(O)cc3)n2)s1` [4-[4-(4-methyl-2-methylamino-thiazol-5-yl)-pyrimidin-2-ylamino]-phenol], the IC50 on PLK1 [1] (setting [7]) is 4 µM.
Take `O=C(N[C@@H]1CNCCC[C@H]1OC(=O)c1cc(O)c(C(=O)c2c(O)cccc2C(=O)O)c(O)c1)c1ccc(O)cc1` [Balanol]: the “PLK1 inhibition, result in words” value on PLK1 [1] was “no detectable inhibition”. In addition, the IC50 at PLK1 [1] (setting [6]) is over 200 µM.
For the molecule `O=c1c(O)c(-c2ccccc2O)oc2cc(O)cc(O)c12` [Datescetin], at PLK1 [1], the “PLK1 inhibition, result in words” value was “inactive”.
In the case of `Nc1ncnc2c1ncn2[C@@H]1O[C@H](CS)[C@@H](O)[C@H]1O` [5′-Thioadenosine, 5′-Deoxy-5′-thioadenosine], the “potency relative to 2′-thioadenosine on PLK1” value on PLK1 [1] is “about 3 fold”. On PLK1 [1], the “inhibition of PLK1 function” value is “did”. Moreover, the IC50 was 39 µM on PLK1 [1] (setting [3]) and over 200 µM at PLK1 [1] (setting [4]). Besides, the “mode of PLK1 inhibition” value at PLK1 [2] (listed as 5-′thioadenosine) is “none of these compounds were classical competitive inhibitors”; at PLK1 [2] (listed as 5′-thioadenosine) it was “dependent on ATP concentration but not competitive with ATP”. Also, the “inhibition of CKII enzymatic activity” value at Human recombinant CKII is “No significant inhibition”.
For the molecule `O=c1c(O)c(-c2ccc(O)cc2O)oc2cc(O)cc(O)c12` [morin hydrate], the “PLK1 inhibition, result in words” value on PLK1 [1] is given as “the most potent in the flavonoid series”. Besides, the IC50 on PLK1 [1] (setting [5]) was 12.6 ± 1.4 µM; at PLK1 [1] (setting [7]) it was 12 µM.
As for `Nc1ncnc2c1ncn2[C@@H]1O[C@H](CO)[C@@H](O)[C@H]1S` [2′-Thioadenosine], the “inhibition of PLK1 function” value against PLK1 [1] is “did”. The IC50 on PLK1 [1] (setting [3]) is 120 µM; on PLK1 [1] (setting [4]), over 200 µM. Further, the “mode of PLK1 inhibition” value at PLK1 [2] is “none of these compounds were classical competitive inhibitors”. The “inhibition of CKII enzymatic activity” value at Human recombinant CKII is “No significant inhibition”.
